Measured values as given in patent publication EP0903341A1, “"Novel ortho-mercaptoaniline compounds"” (Akzo Nobel N.V., priority 1997, dated 1999).
≈ marks a conversion by molar mass, not a printed value.

Tests used:
Entamoeba histolytica = experiment: Anti-amoebic action in vivo in rats infected in the caecum (cure index); conditions: for cure index: five days
[1] = test system: Entamoeba histolytica 200: NIH or E-32; experiment: Anti-amoebic action in vitro (axenic culture, minimum inhibitory concentration); type: cell-based; conditions: axenic culture in TYI-S-33 medium, 48 h incubation with compound at 37°C, amoebae counted by microscope, read-out: minimum concentration active in killing the amoeba
Description: Axenic Entamoeba histolytica cultures were grown in glass, screw-capped tubes (16x100 mm) containing about 10 ml complete growth medium TYI-S-33. The tubes were inoculated with 0.5 ml of a 72 h old axenic culture of Entamoeba histolytica 200: NIH or E-32, obtained from an external supplier (Kothari Research Centre, Calcutta, India). After incubation for 24 h at 37°C compounds to be tested were added at desired concentrations. Incubation of the tubes was continued for an additional 48 h. The number of amoebae in the medium were counted by microscopic examination at 100x magnification. The complete growth medium TYI-S-33 medium was prepared by mixing aseptically 9 ml of a nutrient solution, 1 ml of animal serum, 0.3 ml of a vitamin mixture and 0.05 ml of a solution containing the antibiotics streptomycine and benzylpenicillin. The composition of TYI-S-33 medium and method of preparation is described in detail by Diamond (J Parasitology 54:1047-1056, 1968). Test compounds are tested at different concentrations, the highest is 100 µg/ml. Lower concentrations are tested in successive tests until the minimum inhibitory concentration is reached. The reference compounds tinidazole was active in killing the amoeba at a minimum concentration of 1.5 µg/ml. Compound B of this invention was active in killing the amoeba at a minimum concentration of 3.1 µg/ml.

Structure (SMILES)	cure index (Entamoeba histolytica; Dose 9 mg/kg oral)	cure index (Entamoeba histolytica; Dose 18.8 mg/kg oral)	cure index (Entamoeba histolytica; Dose 37.5 mg/kg oral)	cure index (Entamoeba histolytica; Dose 75 mg/kg oral)	cure index (Entamoeba histolytica; Dose 100 mg/kg oral)	increase in cure index (in words) (Entamoeba histolytica; doses of 9 or 20 mg/kg per day, oral)	cure index (Entamoeba histolytica; Dose 150 mg/kg oral)	cure index (Entamoeba histolytica; Dose 200 mg/kg oral)	MIC [1] [mg/L]
COc1ccc(CCNCCC(=O)N(C)c2ccccc2SC)cc1OC [Compound A, 3-[2-(3,4-dimethoxyphenyl)ethylamino]-N-methyl-N-[(2-methylthio)phenyl]-propionamide]	23 percentage of the control group	34 percentage of the control group	56 ±5 percentage of the control group	76 ±6 percentage of the control group	74 ± 10 percentage of the control group	No increase in cure index			
CCS(=O)(=O)CCn1c([N+](=O)[O-])cnc1C [Tinidazole, reference compound]				51 ± 8 percentage of the control group			66 ± 5 percentage of the control group	81 ± 5 percentage of the control group	1.5 (≈ 6.07 µM)
COc1ccc(CSc2ccccc2N(C)CCCN(C)CCc2ccc(OC)c(OC)c2)cc1 [Compound B, N-[2-(3,4-dimethoxyphenyl)ethyl]-N-methyl-N'-[2-(4-methoxyphenyl)methylthiophenyl]-N'-methyl-1,3-diaminopropane]									3.1 (≈ 6.27 µM)
